From BindingDB's records for doi:10.1021/acs.jmedchem.8b00082 (Abbvie, 2018)

Legend:
[1] = Inhibition of NS5A in HuH7 cell infected HCV genotype 1a H77 assessed as decrease in viral replication after 3 days by luciferase reporter gene assay
[2] = Inhibition of NS5A in HuH7 cell infected HCV genotype 1b Con1 assessed as decrease in viral replication after 3 days by luciferase reporter gene assay
[3] = Inhibition of HCV genotype 1b Con1 NS5A expressed in HuH7 cell infected HCV genotype 2b assessed as decrease in viral replication after 3 days by luciferase reporter gene assay
[4] = Inhibition of HCV genotype 1b Con1 NS5A expressed in HuH7 cell infected HCV genotype 3a assessed as decrease in viral replication after 3 days by luciferase reporter gene assay
[5] = Inhibition of HCV genotype 1b Con1 NS5A expressed in HuH7 cell infected HCV genotype 4a assessed as decrease in viral replication after 3 days by luciferase reporter gene assay
[6] = Inhibition of HCV genotype 1b Con1 NS5A expressed in HuH7 cell infected HCV genotype 2a assessed as decrease in viral replication after 3 days by luciferase reporter gene assay
[7] = Inhibition of NS5A in HuH7 cell infected HCV genotype 1a H77 assessed as decrease in viral replication after 3 days in presence of 40% human plasma by luciferase reporter gene assay
[8] = Inhibition of NS5A in HuH7 cell infected HCV genotype 1b Con1 assessed as decrease in viral replication after 3 days in presence of 40% human plasma by luciferase reporter gene assay
[9] = Inhibition of HCV genotype 1b Con1 NS5A expressed in HuH7 cell infected HCV genotype 6a assessed as decrease in viral replication after 3 days by luciferase reporter gene assay
[10] = Inhibition of HCV genotype 1b Con1 NS5A expressed in HuH7 cell infected HCV genotype 5a assessed as decrease in viral replication after 3 days by luciferase reporter gene assay

Structure (SMILES)	EC50 [1] [nM]	EC50 [2] [nM]	EC50 [3] [nM]	EC50 [4] [nM]	EC50 [5] [nM]	EC50 [6] [nM]	EC50 [7] [nM]	EC50 [8] [nM]	EC50 [9] [nM]	EC50 [10] [nM]
COC(=O)N[C@H](C(=O)N1CCC[C@H]1c1nc2ccc([C@H]3CC[C@H](c4ccc5nc([C@@H]6CCCN6C(=O)[C@@H](NC(=O)OC)C(C)C)[nH]c5c4)N3c3ccc(C4CCCCC4)cc3)cc2[nH]1)C(C)C	0.004	0.009	0.007	0.008	0.009	0.01	0.107	0.178		
COC(=O)N[C@H](C(=O)N1CCC[C@H]1c1nc2ccc([C@H]3CC[C@H](c4ccc5nc([C@@H]6CCCN6C(=O)[C@@H](NC(=O)OC)C(C)C)[nH]c5c4)N3c3ccc(N4CCC(c5ccccc5)CC4)cc3)cc2[nH]1)C(C)C	0.324	0.325	0.452	0.481	0.243	0.468	1.51	1.51	0.402	
COC(=O)N[C@H](C(=O)N1CCC[C@H]1c1nc2ccc([C@H]3CC[C@H](c4ccc5nc([C@@H]6CCCN6C(=O)[C@@H](NC(=O)OC)C(C)C)[nH]c5c4)N3c3ccc(N4CCOCC4)cc3)cc2[nH]1)C(C)C	0.379	0.382	0.96	1.2	0.316	0.598	0.902	2.07		
COC(=O)N[C@H](C(=O)N1CCC[C@H]1c1nc2cc(F)c([C@H]3CC[C@H](c4cc5[nH]c([C@@H]6CCCN6C(=O)[C@@H](NC(=O)OC)C(C)C)nc5cc4F)N3c3cc(F)c(N4CCC(c5ccc(F)cc5)CC4)c(F)c3)cc2[nH]1)C(C)C	0.001	0.003	0.002	0.001	0.001	0.003	0.07	0.172	0.003	0.001
COC(=O)N[C@H](C(=O)N1CCC[C@H]1c1nc2cc([C@H]3CC[C@H](c4ccc5[nH]c([C@@H]6CCCN6C(=O)[C@@H](NC(=O)OC)C(C)C)nc5c4)N3c3cc(F)c(N4CCCCC4)c(F)c3)ccc2[nH]1)C(C)C	0.005	0.006	0.007	0.008	0.005	0.013	0.151	0.241	0.007	
COC(=O)N[C@H](C(=O)N1CCC[C@H]1c1nc2ccc([C@H]3CC[C@H](c4ccc5nc([C@@H]6CCCN6C(=O)[C@@H](NC(=O)OC)C(C)C)[nH]c5c4)N3c3ccc(C(C)(C)C)cc3)cc2[nH]1)C(C)C	0.009	0.013	0.01	0.006	0.006	0.152	0.148	0.268		
COC(=O)N[C@H](C(=O)N1CCC[C@H]1c1nc2ccc([C@H]3CC[C@H](c4ccc5nc([C@@H]6CCCN6C(=O)[C@@H](NC(=O)OC)C(C)C)[nH]c5c4)N3c3ccc(Cl)cc3)cc2[nH]1)C(C)C	0.006	0.007	0.007	0.012	0.005	0.012	0.24	0.33	0.008	
COC(=O)N[C@H](C(=O)N1CCC[C@H]1c1nc2ccc([C@H]3CC[C@H](c4ccc5nc([C@@H]6CCCN6C(=O)[C@@H](NC(=O)OC)C(C)C)[nH]c5c4)N3c3ccc(-c4ccccc4)cc3)cc2[nH]1)C(C)C	0.004	0.003	0.009	0.016	0.006	0.011	0.075	0.108	0.011	
COC(=O)N[C@H](C(=O)N1CCC[C@H]1c1nc2cc(F)c([C@H]3CC[C@H](c4cc5[nH]c([C@@H]6CCCN6C(=O)[C@@H](NC(=O)OC)[C@@H](C)OC)nc5cc4F)N3c3cc(F)c(N4CCC(c5ccccc5)CC4)c(F)c3)cc2[nH]1)[C@@H](C)OC	0.001	0.003	0.003	0.003	0.003	0.003	0.043	0.138	0.004	0.002
COC(=O)N[C@H](C(=O)N1CCC[C@H]1C(=O)Nc1ccc([C@H]2CC[C@H](c3ccc(NC(=O)[C@@H]4CCCN4C(=O)[C@@H](NC(=O)OC)C(C)C)cc3)N2c2ccc(C(C)(C)C)cc2)cc1)C(C)C	0.136	0.009					0.986	0.09		
COC(=O)N[C@H](C(=O)N1CCC[C@H]1c1nc2ccc([C@H]3CC[C@H](c4ccc5nc([C@@H]6CCCN6C(=O)[C@@H](NC(=O)OC)C(C)C)[nH]c5c4)N3c3ccc(N4CCCCC4)c(F)c3)cc2[nH]1)C(C)C	0.018	0.029	0.03	0.044	0.017	0.048	0.199	0.383		
COC(=O)N[C@H](C(=O)N1CCC[C@H]1c1nc2ccc([C@H]3CC[C@H](c4ccc5nc([C@@H]6CCCN6C(=O)[C@@H](NC(=O)OC)C(C)C)[nH]c5c4)N3c3ccc(OC(F)(F)F)cc3)cc2[nH]1)C(C)C	0.019	0.012	0.012	0.018	0.013	0.043	0.276	0.23		
COC(=O)N[C@H](C(=O)N1CCC[C@H]1c1nc2ccc([C@H]3CC[C@H](c4ccc5nc([C@@H]6CCCN6C(=O)[C@@H](NC(=O)OC)C(C)C)[nH]c5c4)N3c3cc(Cl)c(N4CCCCC4)c(Cl)c3)cc2[nH]1)C(C)C	0.005	0.003	0.005	0.011	0.006	0.044	0.213	0.132	0.01	
COC(=O)N[C@H](C(=O)N1CCC[C@H]1c1nc2cc(F)c([C@H]3CC[C@H](c4cc5[nH]c([C@@H]6CCCN6C(=O)[C@@H](NC(=O)OC)C(C)C)nc5cc4F)N3c3cc(F)c(N4CCC(c5ccccc5)CC4)c(F)c3)cc2[nH]1)C(C)C	0.002	0.006	0.003	0.004	0.004	0.008	0.058	0.135	0.009	0.002
COC(=O)N[C@H](C(=O)N1CCC[C@H]1c1nc2ccc([C@H]3CC[C@H](c4ccc5nc([C@@H]6CCCN6C(=O)[C@@H](NC(=O)OC)C(C)C)[nH]c5c4)N3c3cc(F)c(N4CCC(c5ccc(F)cc5)CC4)c(F)c3)cc2[nH]1)C(C)C	0.003	0.008	0.013	0.013	0.009	0.02	0.078	0.126	0.021	
COC(=O)N[C@H](C(=O)N1CCC[C@H]1c1nc2ccc([C@H]3CC[C@H](c4ccc5nc([C@@H]6CCCN6C(=O)[C@@H](NC(=O)OC)C(C)C)[nH]c5c4)N3c3ccc(Oc4ccccc4)cc3)cc2[nH]1)C(C)C	0.012	0.02	0.008	0.011	0.005	0.012	0.155	0.279		
COC(=O)N[C@H](C(=O)N1CCC[C@H]1c1nc2ccc([C@H]3CC[C@H](c4ccc5nc([C@@H]6CCCN6C(=O)[C@@H](NC(=O)OC)C(C)C)[nH]c5c4)N3c3ccc(C4CC4)cc3)cc2[nH]1)C(C)C	0.012	0.023	0.02	0.026	0.02	0.041	0.161	0.354		
COC(=O)N[C@H](C(=O)N1CCC[C@H]1c1nc2ccc([C@@H]3CC[C@@H](c4ccc5nc([C@@H]6CCCN6C(=O)[C@@H](NC(=O)OC)C(C)C)[nH]c5c4)N3c3ccc(C(C)(C)C)cc3)cc2[nH]1)C(C)C	0.071	0.013					1.98	0.354		
COC(=O)N[C@H](C(=O)N1CCC[C@H]1c1nc2ccc([C@H]3CC[C@H](c4ccc5nc([C@@H]6CCCN6C(=O)[C@@H](NC(=O)OC)C(C)C)[nH]c5c4)N3c3ccc(F)cc3)cc2[nH]1)C(C)C	0.038	0.025	0.021	0.031	0.014	0.028	0.49	0.427	0.014	
COC(=O)N[C@H](C(=O)N1CCC[C@H]1c1nc2ccc([C@H]3CC[C@H](c4ccc5nc([C@@H]6CCCN6C(=O)[C@@H](NC(=O)OC)C(C)C)[nH]c5c4)N3c3ccc(N4CCOCC4)c(F)c3)cc2[nH]1)C(C)C	0.189	0.196	0.229	0.355	0.17	0.307	0.474	0.915		
